The source made the active and inactive calls. No cut-off for these calls is given here.
Assays:
[1] = molecular target: T1, Estrogen receptor (Homo sapiens) (UniProt P03372); assay: Binding affinity to human ERalpha assessed as relative binding affinity incubated under vibration for 1 min followed by 2 hrs incubation under dark condition by fluorescence polarization assay relative to estradiol; details: time 121.0 min
T1 sequence (whole entry): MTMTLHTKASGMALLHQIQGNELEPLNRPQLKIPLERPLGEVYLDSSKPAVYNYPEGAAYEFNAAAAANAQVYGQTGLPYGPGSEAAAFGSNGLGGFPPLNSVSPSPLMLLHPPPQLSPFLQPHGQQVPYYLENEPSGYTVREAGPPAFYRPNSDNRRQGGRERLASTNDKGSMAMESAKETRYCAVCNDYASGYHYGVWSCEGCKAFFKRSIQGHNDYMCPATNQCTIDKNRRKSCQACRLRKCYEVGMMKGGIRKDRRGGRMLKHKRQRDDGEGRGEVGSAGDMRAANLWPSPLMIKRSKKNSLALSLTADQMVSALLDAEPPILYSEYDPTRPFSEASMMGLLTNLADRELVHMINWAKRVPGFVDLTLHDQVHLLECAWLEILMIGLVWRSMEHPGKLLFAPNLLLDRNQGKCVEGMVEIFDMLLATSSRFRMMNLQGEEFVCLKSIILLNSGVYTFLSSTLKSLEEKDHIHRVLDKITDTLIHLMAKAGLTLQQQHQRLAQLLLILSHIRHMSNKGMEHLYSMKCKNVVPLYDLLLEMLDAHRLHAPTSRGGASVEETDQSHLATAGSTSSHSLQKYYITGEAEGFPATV

[2] = molecular target: Estrogen receptor beta (Homo sapiens) (UniProt Q92731); assay: Binding affinity to human ERbeta assessed as relative binding affinity incubated under vibration for 1 min followed by 2 hrs incubation under dark condition by fluorescence polarization assay relative to estradiol; details: time 121.0 min
Homo sapiens = species: Homo sapiens; assay: Selectivity ratio of relative binding affinity for human ERalpha to relative binding affinity to human ERbeta
MCF7 = assay: Antiproliferative activity against ERalpha positive human MCF7 cells assessed as inhibition of cell proliferation incubated for 72 hrs by CCK8 assay; format: functional, cell-based; details: MCF7, 72 h
T47D [3] = assay: Antiproliferative activity against ERalpha positive human T47D cells assessed as inhibition of cell proliferation incubated for 72 hrs by CCK8 assay; format: functional, cell-based
[4] = Cytotoxicity against human MCF-10A cells assessed as inhibition of cell proliferation incubated for 72 hrs by CCK8 assay; format: toxicity, cell-based
[5] = Selectivity index, ratio of IC50 for cytotoxicity against human MCF-10A cells to IC50 for antiproliferative activity against human MCF7 cells; format: toxicity, cell-based; details: MCF-10A cells and MCF7 cells, read-out: Ratio IC50
[6] = Antiproliferative activity against human Tamoxifen-resistant LCC2 cells assessed as inhibition of cell proliferation incubated for 72 hrs by CCK8 assay; format: functional, cell-based
T47D [7] = assay: Antiproliferative activity against human T47D cells harboring ERalpha D538G mutant assessed as inhibition of cell proliferation incubated for 72 hrs by CCK8 assay; format: functional, cell-based
T47D [8] = assay: Antiproliferative activity against human T47D cells harboring ERalpha Y537S mutant assessed as inhibition of cell proliferation incubated for 72 hrs by CCK8 assay; format: functional, cell-based
[9] = molecular target: T1, Estrogen receptor (Homo sapiens); assay: Induction of ERalpha degradation in human MCF7 cells at 5 uM incubated for 24 hrs by Western blot analysis relative to SeCN-OBHSA derivatives; format: cell-based

Chain of Estrogen receptor beta (Homo sapiens) (Q92731 whole entry): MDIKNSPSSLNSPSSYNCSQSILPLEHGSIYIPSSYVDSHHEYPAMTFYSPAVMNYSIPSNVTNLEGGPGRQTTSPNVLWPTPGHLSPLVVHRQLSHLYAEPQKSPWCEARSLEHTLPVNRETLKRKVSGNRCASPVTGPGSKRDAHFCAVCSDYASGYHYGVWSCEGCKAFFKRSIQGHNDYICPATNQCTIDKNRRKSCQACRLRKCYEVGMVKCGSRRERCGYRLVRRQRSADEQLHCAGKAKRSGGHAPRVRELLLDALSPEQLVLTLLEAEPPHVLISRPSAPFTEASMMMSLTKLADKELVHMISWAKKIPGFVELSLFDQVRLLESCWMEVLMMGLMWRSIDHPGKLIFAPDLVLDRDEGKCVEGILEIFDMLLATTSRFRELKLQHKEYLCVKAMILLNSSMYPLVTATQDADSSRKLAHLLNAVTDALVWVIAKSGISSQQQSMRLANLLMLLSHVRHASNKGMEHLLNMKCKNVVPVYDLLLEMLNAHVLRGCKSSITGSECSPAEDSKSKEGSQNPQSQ

Structure (SMILES)	RBA [1] [%]	RBA [2] [%]	Selectivity ratio (Homo sapiens)	IC50 (MCF7) [nM]	IC50 (T47D [3]) [µM]	IC50 at 72 h [4] [µM]	selectivity ratio [5]	IC50 [6] [µM]	IC50 (T47D [7]) [µM]	IC50 (T47D [8]) [µM]	Activity [9]
CCN(c1ccccc1OC)S(=O)(=O)C1CC2OC1C(c1ccc(NC(=O)CCCCC[Se]C#N)cc1)=C2c1ccc(O)cc1 (centres undefined)	2.82	0.03	94	420	3.93	15.9	37.9	6.56	5.52	3.69	Active
CCN(c1ccc(OC)cc1)S(=O)(=O)C1CC2OC1C(c1ccc(NC(=O)CCCCC[Se]C#N)cc1)=C2c1ccc(O)cc1 (centres undefined)	7.3	0.01	730	330	6.66	37.9	115	5.8	4.76	4.92	Active
COc1ccc(N(CC(F)(F)F)S(=O)(=O)C2CC3OC2C(c2ccc(NC(=O)CCCCCCC[Se]C#N)cc2)=C3c2ccc(O)cc2)cc1 (centres undefined)	0.76	0.09	8.44	440	20.2	38.2	86.8	10.3	12.7	6.27	Active
CCN(c1ccc(Cl)cc1)S(=O)(=O)C1CC2OC1C(c1ccc(NC(=O)CCCCC[Se]C#N)cc1)=C2c1ccc(O)cc1 (centres undefined)	2.31	0.06	38.5	440	5.66	29.2	66.3	4	6.76	4.51	Active
N#C[Se]CCCCCC(=O)Nc1ccc(C2=C(c3ccc(O)cc3)C3CC(S(=O)(=O)N(CC(F)(F)F)c4cccc(F)c4)C2O3)cc1 (centres undefined)	4.64	0.1	46.4	310	2.87	4.74	15.3	1.97	2.86	3.38	Active
N#C[Se]CCCCCC(=O)Nc1ccc(C2=C(c3ccc(O)cc3)C3CC(S(=O)(=O)N(CC(F)(F)F)c4ccc(F)cc4)C2O3)cc1 (centres undefined)	7.18	0.38	18.9	170	5.82	12.2	71.9	4.48	2.71	2.7	Active
CCN(c1ccc(OC)cc1)S(=O)(=O)C1CC2OC1C(c1ccc(NC(=O)CCC[Se]C#N)cc1)=C2c1ccc(O)cc1 (centres undefined)	1.07	0.17	6.29	1630	7.44	> 100	> 61.4	17.4	8.97	6.69	Active
COc1ccc(N(CC(F)(F)F)S(=O)(=O)C2CC3OC2C(c2ccc(NC(=O)CCC[Se]C#N)cc2)=C3c2ccc(O)cc2)cc1 (centres undefined)	0.46	0.38	1.21	2950	19.9	> 100	> 33.9	10.1	17.2	11.7	Active
CCN(c1cccc(Cl)c1)S(=O)(=O)C1CC2OC1C(c1ccc(NC(=O)CCCCC[Se]C#N)cc1)=C2c1ccc(O)cc1 (centres undefined)	5.56	0.09	61.8	280	3.83	9.23	33	2.61	1.91	3.03	Active
N#C[Se]CCCCCC(=O)Nc1ccc(C2=C(c3ccc(O)cc3)C3CC(S(=O)(=O)N(CC(F)(F)F)c4ccccc4)C2O3)cc1 (centres undefined)	0.39	0.03	13	1890	27.7	57.6	30.5	20.2	17.4	18.9	Active
CCN(c1ccc(OC)cc1)S(=O)(=O)C1CC2OC1C(c1ccc(NC(=O)CCCCCCC[Se]C#N)cc1)=C2c1ccc(O)cc1 (centres undefined)	2.61	0.1	26.1	660	18	29.8	45.1	13.4	7.35	7.01	Active
N#C[Se]CCCCCC(=O)Nc1ccc(C2=C(c3ccc(O)cc3)C3CC(S(=O)(=O)N(CC(F)(F)F)c4ccc(Cl)cc4)C2O3)cc1 (centres undefined)	7.52	0.01	752	250	13.6	32.4	130	6.69	5.11	4.4	Active
CCN(c1cccc(F)c1)S(=O)(=O)C1CC2OC1C(c1ccc(NC(=O)CCCCC[Se]C#N)cc1)=C2c1ccc(O)cc1 (centres undefined)	0.79	0.03	26.3	360	3.39	11	30.6	2.51	2.37	2.39	Active
CCN(c1ccccc1Cl)S(=O)(=O)C1CC2OC1C(c1ccc(NC(=O)CCCCC[Se]C#N)cc1)=C2c1ccc(O)cc1 (centres undefined)	2.69	0.09	29.9	160	3.11	17.3	108	2.17	2.37	2.18	Active

From ChEMBL document CHEMBL5360672, “Identification of Novel Dual-Target Estrogen Receptor α Degraders with Tubulin Inhibitory Activity for the Treatment of Endocrine-Resistant Breast Cancer” (J Med Chem, 2023)
